The assay has as its target Dihydroorotate dehydrogenase (quinone), mitochondrial (Homo sapiens, UniProt Q02127). The assay is described as follows: DHODH enzymatic assay. The procedure: To detect DHODH enzyme activities, dichloroindophenol (DCIP) is added as the final electron acceptor in the assay. DCIP can accept electrons from the reduced coenzyme Q generated in the assay, or from dihydroorotate (DHO) via FMN by binding presumably to the ubiquinone pocket. […] The assay buffer contained […], pH 7.5, 150 mM NaCl, 0.5 mM EDTA, and 0.1% Triton X-100 in MilliQ water. Substrate consisting of 20 mM DHO, 5mM CoQ6, and 1mM DCIP in assay buffer, initiates the reaction. […] Absorbance measurements were obtained using the BMG Phera Star plate-reading spectrophotomer. Purified human DHODH was purchased from Proteros (cat. No. PR-0044). Chemicals were purchased from Sigma-Aldrich, Teknova, and Avanti Polar Lipids. Liquid handling was performed using Labcyte Echo and Formulatrix Tempest.
Chain of Dihydroorotate dehydrogenase (quinone), mitochondrial (Q02127 whole entry): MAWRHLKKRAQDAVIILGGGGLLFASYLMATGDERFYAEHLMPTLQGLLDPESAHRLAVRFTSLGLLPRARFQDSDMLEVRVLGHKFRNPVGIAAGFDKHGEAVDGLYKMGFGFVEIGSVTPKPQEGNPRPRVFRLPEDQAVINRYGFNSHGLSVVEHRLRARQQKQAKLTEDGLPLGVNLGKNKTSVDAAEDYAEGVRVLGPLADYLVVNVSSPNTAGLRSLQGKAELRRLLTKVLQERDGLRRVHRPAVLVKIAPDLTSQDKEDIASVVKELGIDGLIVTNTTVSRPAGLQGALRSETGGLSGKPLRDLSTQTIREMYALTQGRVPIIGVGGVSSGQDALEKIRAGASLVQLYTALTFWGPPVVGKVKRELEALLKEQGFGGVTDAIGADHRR
Usually IC50 stands for the point on the concentration scale where inhibition reaches its midpoint. A high value points to lower potency. With `Cc1ccccc1-c1cc(C(C)C)c2cc(-c3cn(C)c(C(C)(C)O)n3)c(F)cn2c1=O` [WO2022070071, Example 1], the IC50 worked out at 2.11 nM.

`Cc1n[nH]c(Cl)c1-c1cc(C(C)C)c2cc(-c3cn(C)c(C(C)(C)O)n3)c(F)cn2c1=O` [WO2022070071, Example 4]: half-maximal inhibition (IC50) was put at 2.69 nM. Then `Cc1n[nH]c(Cl)c1-c1cc(C(C)C)c2cc(-c3nc(C(C)(C)O)n(C)n3)c(F)cn2c1=O` [WO2022070071, Example 5], with 2.1 nM; and `Cc1n[nH]c(C(F)(F)F)c1-c1cc(C(C)C)c2cc(-c3cn(C)c(C(C)(C)O)n3)c(F)cn2c1=O` [WO2022070071, Example 6], with 4.07 nM; and `Cc1n[nH]c(C(F)(F)F)c1-c1cc(C(C)C)c2cc(-c3nc(C(C)(C)O)n(C)n3)c(F)cn2c1=O` [WO2022070071, Example 7], with 2.51 nM. Then `Cc1ccnc(Cl)c1-c1cc(C(C)C)c2cc(-c3cn(C)c(C(C)(C)O)n3)c(F)cn2c1=O` [WO2022070071, Example 8], with 13 nM. `Cc1ccnc(Cl)c1-c1cc(C(C)C)c2cc(-c3nc(C(C)(C)O)n(C)n3)c(F)cn2c1=O` [WO2022070071, Example 9] showed an IC50 of 13 nM.

Source of the values: BindingDB's records for patent WO2022070071 (JANSSEN BIOTECH, INC., 2022).
